Experimental findings from patent US12391685B2, “Inhibitors of RNA-guided nuclease target binding and uses thereof” (THE BROAD INSTITUTE, INC., priority 2018, dated 2025) are described below.

SpCas9, sequence (Q99ZW2 whole entry): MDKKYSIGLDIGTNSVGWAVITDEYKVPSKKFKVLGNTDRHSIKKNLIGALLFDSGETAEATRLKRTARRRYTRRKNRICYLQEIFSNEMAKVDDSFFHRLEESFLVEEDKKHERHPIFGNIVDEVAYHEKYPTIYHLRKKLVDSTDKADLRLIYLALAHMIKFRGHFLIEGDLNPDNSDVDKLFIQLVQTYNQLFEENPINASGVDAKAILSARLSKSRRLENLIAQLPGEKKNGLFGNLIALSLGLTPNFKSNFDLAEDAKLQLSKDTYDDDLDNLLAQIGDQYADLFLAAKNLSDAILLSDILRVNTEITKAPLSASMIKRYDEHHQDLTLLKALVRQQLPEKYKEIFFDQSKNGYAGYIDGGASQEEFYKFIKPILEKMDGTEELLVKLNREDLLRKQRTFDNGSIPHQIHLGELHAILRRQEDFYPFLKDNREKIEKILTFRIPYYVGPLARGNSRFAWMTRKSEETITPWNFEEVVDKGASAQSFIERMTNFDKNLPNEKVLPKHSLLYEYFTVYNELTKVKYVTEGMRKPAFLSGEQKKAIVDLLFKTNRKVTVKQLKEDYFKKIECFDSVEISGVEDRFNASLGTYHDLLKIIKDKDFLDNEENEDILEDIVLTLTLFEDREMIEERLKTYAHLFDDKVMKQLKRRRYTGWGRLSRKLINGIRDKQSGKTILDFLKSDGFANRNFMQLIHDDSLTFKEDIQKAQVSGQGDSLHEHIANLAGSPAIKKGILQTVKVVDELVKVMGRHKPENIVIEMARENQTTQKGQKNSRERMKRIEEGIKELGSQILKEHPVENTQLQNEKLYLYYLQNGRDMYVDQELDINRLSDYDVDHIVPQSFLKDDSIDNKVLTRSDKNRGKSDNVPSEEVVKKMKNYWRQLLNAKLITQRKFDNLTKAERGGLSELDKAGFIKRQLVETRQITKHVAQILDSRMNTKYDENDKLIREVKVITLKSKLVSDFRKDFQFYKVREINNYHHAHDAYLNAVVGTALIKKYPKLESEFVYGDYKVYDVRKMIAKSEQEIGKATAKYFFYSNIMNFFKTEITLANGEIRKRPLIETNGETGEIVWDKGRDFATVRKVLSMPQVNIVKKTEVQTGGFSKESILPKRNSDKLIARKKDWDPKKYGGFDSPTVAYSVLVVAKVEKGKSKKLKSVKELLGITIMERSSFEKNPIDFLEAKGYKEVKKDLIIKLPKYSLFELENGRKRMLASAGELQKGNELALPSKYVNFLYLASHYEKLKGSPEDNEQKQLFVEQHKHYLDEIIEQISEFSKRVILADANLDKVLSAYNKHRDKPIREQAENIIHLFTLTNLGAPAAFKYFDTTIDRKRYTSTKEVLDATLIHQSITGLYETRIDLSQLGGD

In one experiment the target is SpCas9 (Streptococcus pyogenes serotype M1, UniProt Q99ZW2). As to the kind of experiment: eGFP-disruption assay in U2OS.eGFP.PEST cells. Type of experiment: cell-based, S. pyogenes. Also on record: host or cells: U2OS.eGFP.PEST. The note with it: screen of structural analogs of BRD7087; 15 μM compound, 24 h, U2OS.eGFP.PEST cells. Here is the method:
SpCas9 nuclease activity in eGFP-disruption assay. Approximately 200,000 U2OS.eGFP-PEST cells were nucleofected following two different methods either by nucleofecting plasmids or RNP using the SE Cell Line 4D-Nucleofector™ X Kit (Lonza) according to the manufacturer's protocol. In the plasmid nucleofection method, cells were nucleofected either with 440 ng of SpCas9 (Addgene Plasmid #43861) or 400 ng of SpCas9 along with 40 ng of sgRNA (pFYF1320 eGFP Site #1, Addgene Plasmid #47511). Cells nucleofected only with SpCas9-expressing plasmid were used as the transfection control. In the RNP nucleofection method, either […] SpCas9 or 20 pmol preformed SpCas9:gRNA (eGFP Site #1) complex were nucleofected. Approximately 20,000 transfected cells/well were plated in 4 replicates in a 96-well plate (Corning® 3904). Cells were incubated with the indicated amount of compound or DMSO for 24 h post transfection. A DMSO solution of compound (20 mM) was resuspended in the 10% FBS containing growth media and thoroughly mixed before adding to the cells. Cells were then fixed using 4% paraformaldehyde and imaged with the HCS NuclearMask™ Blue Stain (Life Technologies) as the nuclear counter-staining agent. Imaging was performed with an ImageXpress Micro automated microscope (Molecular Devices) at 10× magnification under three excitation channels (blue, green and red) acquiring nine sites per well. Images were analyzed using MetaXpress software and data were plotted using GraphPad Prism 6.
The Z′-value was calculated using the equation (1), where σ1 and σ2 are the standard deviations of DMSO control and SpCas9:gRNA control respectively. μ1 and μ2 are the mean % GFP^− cell population for DMSO control and SpCas9:gRNA control, respectively.
As for `O=S(=O)(c1cccc(F)c1)N1CC[C@@H]2[C@H](CO)Nc3ccc(C#Cc4ccccc4F)cc3[C@@H]21` [BRD-K12807496], the “Average Inhibition activity” value is 60.8, the “Inhibition activity Rep 1” value is given as 50.9 and the “Inhibition activity Rep 2” value was found to be 70.7.

Regarding `CN1c2ccc(-c3ccc(C#N)cc3)cc2[C@@H]2[C@@H](CCN2S(=O)(=O)c2cccc(F)c2)[C@H]1CO` [BRD-K40448176], the “Average Inhibition activity” value was determined as 51.6, the “Inhibition activity Rep 1” value is listed as 52.1 and the “Inhibition activity Rep 2” value came to 51.2.

As to `COCC(=O)N1CC[C@@H]2[C@H](CO)Nc3ccc(C#Cc4cccc(F)c4)cc3[C@@H]21` [BRD-K09759494], the “Average Inhibition activity” value was determined as 50.9, the “Inhibition activity Rep 1” value came out at 51.1 and the “Inhibition activity Rep 2” value was determined as 50.7.

`CN1c2ccc(C#Cc3cccnc3)cc2[C@@H]2[C@@H](CCN2C(=O)c2cccc(F)c2)[C@H]1CO` [BRD-K46446619]: the “Average Inhibition activity” value worked out at 64.6, the “Inhibition activity Rep 1” value is 63.4 and the “Inhibition activity Rep 2” value stood at 65.9.

For the compound `COc1ccccc1C#Cc1ccc2c(c1)[C@H]1[C@H](CCN1C(=O)CN1CCOCC1)[C@H](CO)N2` [BRD-K26627503], the “Average Inhibition activity” value turned out to be 56.9, the “Inhibition activity Rep 1” value is 47.5 and the “Inhibition activity Rep 2” value came to 66.3.

Consider `O=C(c1ccccc1)N1CC[C@@H]2[C@H]1c1cc(C#CC3CCCCC3)ccc1N[C@@H]2CO` [BRD-K92041481], for which the “Average Inhibition activity” value came to 68.3, the “Inhibition activity Rep 1” value was 57.8 and the “Inhibition activity Rep 2” value is given as 78.8.

As for `COc1ccc(C#Cc2ccc3c(c2)[C@H]2[C@H](CCN2C(=O)c2ccccc2F)[C@H](CO)N3C)cc1` [BRD-K56594357], the “Average Inhibition activity” value worked out at 57.9, the “Inhibition activity Rep 1” value was found to be 55.8 and the “Inhibition activity Rep 2” value was 59.9.

For `N#Cc1ccc(-c2ccc3c(c2)[C@H]2[C@H](CCN2C(=O)Cc2ccccc2)[C@@H](CO)N3)cc1` [BRD-K63155325], the “Average Inhibition activity” value was found to be 57.6, the “Inhibition activity Rep 1” value is 63.0 and the “Inhibition activity Rep 2” value was found to be 52.1.

Turning to `O=S(=O)(c1ccc(F)cc1)N1CC[C@@H]2[C@H](CO)Nc3ccc(C#CC4CC4)cc3[C@@H]21` [BRD-K47320872], the “Average Inhibition activity” value was found to be 45.1, the “Inhibition activity Rep 1” value amounted to 44.5 and the “Inhibition activity Rep 2” value turned out to be 45.7.

Consider `O=C(C1CCCCC1)N1CC[C@@H]2[C@H](CO)Nc3ccc(Br)cc3[C@@H]21` [BRD-K60987574], for which the “Average Inhibition activity” value is listed as 60.9, the “Inhibition activity Rep 1” value is 59.5 and the “Inhibition activity Rep 2” value was determined as 62.2.

Turning to `Cc1ccccc1S(=O)(=O)N1CC[C@@H]2[C@H](CO)N(C)c3ccc(C#Cc4ccc(F)cc4)cc3[C@@H]21` [BRD-K11385710], the “Average Inhibition activity” value is 51.1, the “Inhibition activity Rep 1” value is 55.7 and the “Inhibition activity Rep 2” value is reported as 46.5.

For the compound `COc1ccccc1-c1ccc2c(c1)[C@H]1[C@H](CCN1C(=O)CN1CCOCC1)[C@H](CO)N2C` [BRD-K22244182], the “Average Inhibition activity” value was 50.3, the “Inhibition activity Rep 1” value was determined as 57.2 and the “Inhibition activity Rep 2” value worked out at 43.4.

In the case of `CN1c2ccc(C#Cc3cccnc3)cc2[C@H]2[C@H](CCN2C(=O)C2CCCCC2)[C@H]1CO` [BRD-K11970601], the “Average Inhibition activity” value stood at 54.5, the “Inhibition activity Rep 1” value worked out at 59.0 and the “Inhibition activity Rep 2” value is recorded as 50.0.

As for `CN1c2ccc(C#Cc3cccnc3)cc2[C@H]2[C@H](CCN2C(=O)C2CCCCC2)[C@@H]1CO` [BRD-K89354425], the “Average Inhibition activity” value came to 82.0, the “Inhibition activity Rep 1” value was determined as 85.4 and the “Inhibition activity Rep 2” value is listed as 78.7.

With `COc1ccccc1CN1CC[C@@H]2[C@H]1c1cc(C#Cc3ccccc3)ccc1N[C@@H]2CO` [BRD-K18260949], the “Average Inhibition activity” value was 49.5, the “Inhibition activity Rep 1” value amounted to 49.8 and the “Inhibition activity Rep 2” value was 49.1.

In the case of `O=C(Cc1ccccc1)N1CC[C@@H]2[C@H](CO)Nc3ccc(-c4ccc(F)cc4)cc3[C@@H]21` [BRD-K05104277], the “Average Inhibition activity” value was 65.0, the “Inhibition activity Rep 1” value was found to be 71.6 and the “Inhibition activity Rep 2” value is reported as 58.4.

On to `CCC(=O)N1CC[C@@H]2[C@H]1c1cc(C#Cc3ccc(F)cc3)ccc1N[C@@H]2CO` [BRD-K49114971], for which the “Average Inhibition activity” value is 56.1, the “Inhibition activity Rep 1” value was 49.0 and the “Inhibition activity Rep 2” value was 63.1.

For the compound `O=C(C1CC1)N1CC[C@@H]2[C@H](CO)Nc3ccc(Br)cc3[C@@H]21` [BRD-K31090697], the “Average Inhibition activity” value is given as 48.0, the “Inhibition activity Rep 1” value was found to be 46.0 and the “Inhibition activity Rep 2” value is recorded as 49.9.

As for `COc1cccc(-c2ccc3c(c2)[C@@H]2[C@@H](CCN2C(=O)c2cnccn2)[C@@H](CO)N3)c1` [BRD-K11943259], the “Average Inhibition activity” value came to 58.8, the “Inhibition activity Rep 1” value is on record as 53.0 and the “Inhibition activity Rep 2” value came out at 64.6.

On to `CCCC#Cc1ccc2c(c1)[C@@H]1[C@@H](CCN1S(=O)(=O)c1ccccc1OC)[C@@H](CO)N2` [BRD-K43330291], for which the “Average Inhibition activity” value is listed as 59.3, the “Inhibition activity Rep 1” value came to 68.2 and the “Inhibition activity Rep 2” value is given as 50.4.

For `O=S(=O)(c1cccc(F)c1)N1CC[C@@H]2[C@H]1c1cc(C#Cc3ccccc3F)ccc1N[C@@H]2CO` [BRD-K14474387], the “Average Inhibition activity” value came out at 61.3, the “Inhibition activity Rep 1” value stood at 56.1 and the “Inhibition activity Rep 2” value is on record as 66.4.

As to `COc1ccccc1NC(=O)N1CC[C@@H]2[C@H]1c1cc(C#Cc3cccc(F)c3)ccc1N(C)[C@@H]2CO` [BRD-K77165899], the “Average Inhibition activity” value stood at 53.5, the “Inhibition activity Rep 1” value worked out at 47.0 and the “Inhibition activity Rep 2” value is on record as 59.9.

For `CN1c2ccc(-c3cccc(C#N)c3)cc2[C@H]2[C@H](CCN2C(=O)C2CCCCC2)[C@H]1CO` [BRD-K53346571], the “Average Inhibition activity” value came to 52.7, the “Inhibition activity Rep 1” value is listed as 49.1 and the “Inhibition activity Rep 2” value is 56.3.

For `COc1ccc(S(=O)(=O)N2CC[C@@H]3[C@H](CO)N(C)c4ccc(-c5ccccc5F)cc4[C@@H]32)cc1` [BRD-K69451415], the “Average Inhibition activity” value was found to be 53.4, the “Inhibition activity Rep 1” value was found to be 56.2 and the “Inhibition activity Rep 2” value came out at 50.6.

Regarding `O=C(C1CCCCC1)N1CC[C@@H]2[C@H]1c1cc(Br)ccc1N[C@@H]2CO` [BRD-K20055065], the “Average Inhibition activity” value stood at 70.7, the “Inhibition activity Rep 1” value is listed as 67.5 and the “Inhibition activity Rep 2” value was 73.9.

On to `CN1c2ccc(-c3ccccc3F)cc2[C@H]2[C@H](CCN2C(=O)NC2CCCCC2)[C@H]1CO` [BRD-K35104316], for which the “Average Inhibition activity” value was 49.1, the “Inhibition activity Rep 1” value is reported as 54.2 and the “Inhibition activity Rep 2” value is 44.1.

The same experiment, now with this note: structural analogs of BRD0539, R2=a, R1 varied.
In the case of `Cc1cccc(S(=O)(=O)N2CCC3C(CO)Nc4ccc(-c5ccccc5F)cc4C32)c1` (stereo not shown) [Compound 4], the “decrease of activity with respect to BRD0539” value is 47%.
